According to PubChem BioAssay (NCI):
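Assay format: 96-well plates, 48-hour exposure. TGI: concentration producing complete growth inhibition.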

Columns and labels:
Test in all cases: growth of human tumour cells (NCI), 48 h
HOP-62 NSCLC = system: HOP-62 NSCLC
SK-OV-3 ovarian = system: SK-OV-3 ovarian
UO-31 renal = system: UO-31 renal
HT29 colon = system: HT29 colon
HCC-2998 colon = system: HCC-2998 colon
SF-295 CNS = system: SF-295 CNS
HOP-92 NSCLC = system: HOP-92 NSCLC
HCT-116 colon = system: HCT-116 colon
MDA-MB-435 = system: MDA-MB-435
HL-60(TB) leukemia = system: HL-60(TB) leukemia
SNB-75 CNS = system: SNB-75 CNS
NCI-H522 lung = system: NCI-H522 lung
OVCAR-5 ovarian = system: OVCAR-5 ovarian
SK-MEL-2 melanoma = system: SK-MEL-2 melanoma
K-562 leukemia = system: K-562 leukemia
SK-MEL-28 melanoma = system: SK-MEL-28 melanoma
BT-549 breast = system: BT-549 breast
PC-3 prostate = system: PC-3 prostate
SW-620 colon = system: SW-620 colon
OVCAR-8 ovarian = system: OVCAR-8 ovarian
T-47D breast = system: T-47D breast
COLO 205 colon = system: COLO 205 colon
MDA-N = system: MDA-N
SK-MEL-5 melanoma = system: SK-MEL-5 melanoma
RPMI-8226 leukemia = system: RPMI-8226 leukemia
NCI/ADR-RES ovarian = system: NCI/ADR-RES ovarian
DU-145 prostate = system: DU-145 prostate
ACHN renal = system: ACHN renal
UACC-62 melanoma = system: UACC-62 melanoma
UACC-257 melanoma = system: UACC-257 melanoma
KM12 colon = system: KM12 colon
MALME-3M melanoma = system: MALME-3M melanoma
IGROV1 ovarian = system: IGROV1 ovarian
SNB-19 CNS = system: SNB-19 CNS
NCI-H226 lung = system: NCI-H226 lung
OVCAR-3 ovarian = system: OVCAR-3 ovarian
786-0 renal = system: 786-0 renal
HCT-15 colon = system: HCT-15 colon
MOLT-4 leukemia = system: MOLT-4 leukemia
EKVX NSCLC = system: EKVX NSCLC
CAKI-1 renal = system: CAKI-1 renal
MCF7 breast = system: MCF7 breast
NCI-H23 lung = system: NCI-H23 lung
LOX IMVI melanoma = system: LOX IMVI melanoma
NCI-H460 lung = system: NCI-H460 lung
SF-268 CNS = system: SF-268 CNS
HS 578T breast = system: HS 578T breast
TK-10 renal = system: TK-10 renal
OVCAR-4 ovarian = system: OVCAR-4 ovarian
M14 melanoma = system: M14 melanoma
SN12C renal = system: SN12C renal
RXF 393 renal = system: RXF 393 renal
U251 CNS = system: U251 CNS
A549 NSCLC = system: A549 NSCLC
MDA-MB-231 breast = system: MDA-MB-231 breast
A498 renal = system: A498 renal
CCRF-CEM leukemia = system: CCRF-CEM leukemia
SF-539 CNS = system: SF-539 CNS

## OCCNc1ncnc2nc[nH]c12
HOP-62 NSCLC
  TGI: > 100 µM
SK-OV-3 ovarian
  TGI: > 100 µM
UO-31 renal
  TGI: > 100 µM
HT29 colon
  TGI: > 100 µM
HCC-2998 colon
  TGI: > 100 µM
SF-295 CNS
  TGI: > 100 µM
HOP-92 NSCLC
  TGI: > 100 µM
HCT-116 colon
  TGI: > 100 µM
MDA-MB-435
  TGI: > 100 µM
HL-60(TB) leukemia
  TGI: > 100 µM
SNB-75 CNS
  TGI: > 100 µM
NCI-H522 lung
  TGI: > 100 µM
OVCAR-5 ovarian
  TGI: > 100 µM
SK-MEL-2 melanoma
  TGI: > 100 µM
K-562 leukemia
  TGI: > 100 µM
SK-MEL-28 melanoma
  TGI: > 100 µM
BT-549 breast
  TGI: > 100 µM
PC-3 prostate
  TGI: > 100 µM
SW-620 colon
  TGI: > 100 µM
OVCAR-8 ovarian
  TGI: > 100 µM
T-47D breast
  TGI: > 100 µM
COLO 205 colon
  TGI: > 100 µM
MDA-N
  TGI: > 100 µM
SK-MEL-5 melanoma
  TGI: > 100 µM
RPMI-8226 leukemia
  TGI: > 100 µM
NCI/ADR-RES ovarian
  TGI: > 100 µM
DU-145 prostate
  TGI: > 100 µM
ACHN renal
  TGI: > 100 µM
UACC-62 melanoma
  TGI: > 100 µM
UACC-257 melanoma
  TGI: > 100 µM
KM12 colon
  TGI: > 100 µM
MALME-3M melanoma
  TGI: > 100 µM
IGROV1 ovarian
  TGI: > 100 µM
SNB-19 CNS
  TGI: > 100 µM
NCI-H226 lung
  TGI: > 100 µM
OVCAR-3 ovarian
  TGI: > 100 µM
786-0 renal
  TGI: > 100 µM
HCT-15 colon
  TGI: > 100 µM
MOLT-4 leukemia
  TGI: > 100 µM
EKVX NSCLC
  TGI: > 100 µM
CAKI-1 renal
  TGI: > 100 µM
MCF7 breast
  TGI: > 100 µM
NCI-H23 lung
  TGI: > 100 µM
LOX IMVI melanoma
  TGI: > 100 µM
NCI-H460 lung
  TGI: > 100 µM
SF-268 CNS
  TGI: > 100 µM
HS 578T breast
  TGI: > 100 µM
TK-10 renal
  TGI: > 100 µM
OVCAR-4 ovarian
  TGI: > 100 µM
M14 melanoma
  TGI: > 100 µM
SN12C renal
  TGI: > 100 µM
RXF 393 renal
  TGI: > 100 µM
U251 CNS
  TGI: > 100 µM
A549 NSCLC
  TGI: > 100 µM
MDA-MB-231 breast
  TGI: > 100 µM
A498 renal
  TGI: > 100 µM

## COC(=O)[C@@H](Nc1ccccc1)[C@@]1(C(=O)OC)SC12c1ccccc1-c1ccccc12
HOP-62 NSCLC
  TGI: > 100 µM
UO-31 renal
  TGI: > 100 µM
HT29 colon
  TGI: > 100 µM
CCRF-CEM leukemia
  TGI: > 100 µM
HCC-2998 colon
  TGI: > 100 µM
SF-295 CNS
  TGI: > 100 µM
HOP-92 NSCLC
  TGI: > 100 µM
HCT-116 colon
  TGI: > 100 µM
MDA-MB-435
  TGI: > 100 µM
HL-60(TB) leukemia
  TGI: > 100 µM
NCI-H522 lung
  TGI: 62.5 µM
OVCAR-5 ovarian
  TGI: > 100 µM
SK-MEL-2 melanoma
  TGI: > 100 µM
K-562 leukemia
  TGI: > 100 µM
SK-MEL-28 melanoma
  TGI: > 100 µM
BT-549 breast
  TGI: > 100 µM
PC-3 prostate
  TGI: > 100 µM
SW-620 colon
  TGI: > 100 µM
OVCAR-8 ovarian
  TGI: > 100 µM
T-47D breast
  TGI: > 100 µM
COLO 205 colon
  TGI: > 100 µM
MDA-N
  TGI: > 100 µM
SK-MEL-5 melanoma
  TGI: > 100 µM
RPMI-8226 leukemia
  TGI: > 100 µM
NCI/ADR-RES ovarian
  TGI: > 100 µM
DU-145 prostate
  TGI: > 100 µM
ACHN renal
  TGI: > 100 µM
UACC-62 melanoma
  TGI: > 100 µM
UACC-257 melanoma
  TGI: > 100 µM
KM12 colon
  TGI: > 100 µM
MALME-3M melanoma
  TGI: > 100 µM
IGROV1 ovarian
  TGI: > 100 µM
SNB-19 CNS
  TGI: > 100 µM
NCI-H226 lung
  TGI: > 100 µM
OVCAR-3 ovarian
  TGI: > 100 µM
786-0 renal
  TGI: > 100 µM
HCT-15 colon
  TGI: > 100 µM
MOLT-4 leukemia
  TGI: > 100 µM
EKVX NSCLC
  TGI: > 100 µM
CAKI-1 renal
  TGI: > 100 µM
MCF7 breast
  TGI: > 100 µM
NCI-H23 lung
  TGI: > 100 µM
LOX IMVI melanoma
  TGI: > 100 µM
SF-268 CNS
  TGI: > 100 µM
HS 578T breast
  TGI: > 100 µM
TK-10 renal
  TGI: > 100 µM
OVCAR-4 ovarian
  TGI: > 100 µM
M14 melanoma
  TGI: > 100 µM
SN12C renal
  TGI: > 100 µM
RXF 393 renal
  TGI: > 100 µM
U251 CNS
  TGI: > 100 µM
A549 NSCLC
  TGI: > 100 µM
SF-539 CNS
  TGI: > 100 µM
MDA-MB-231 breast
  TGI: > 100 µM
A498 renal
  TGI: > 100 µM

## Cc1ccc(C[N+](C)(C)N)cc1C
HOP-62 NSCLC
  TGI: > 10 µM
SK-OV-3 ovarian
  TGI: > 10 µM
UO-31 renal
  TGI: > 10 µM
HT29 colon
  TGI: > 10 µM
CCRF-CEM leukemia
  TGI: > 10 µM
HCC-2998 colon
  TGI: > 10 µM
SF-295 CNS
  TGI: > 10 µM
HOP-92 NSCLC
  TGI: > 10 µM
HCT-116 colon
  TGI: > 10 µM
MDA-MB-435
  TGI: > 10 µM
HL-60(TB) leukemia
  TGI: > 10 µM
SNB-75 CNS
  TGI: > 10 µM
NCI-H522 lung
  TGI: > 10 µM
OVCAR-5 ovarian
  TGI: > 10 µM
K-562 leukemia
  TGI: > 10 µM
SK-MEL-28 melanoma
  TGI: > 10 µM
BT-549 breast
  TGI: > 10 µM
PC-3 prostate
  TGI: > 10 µM
SW-620 colon
  TGI: > 10 µM
OVCAR-8 ovarian
  TGI: > 10 µM
T-47D breast
  TGI: > 10 µM
COLO 205 colon
  TGI: > 10 µM
MDA-N
  TGI: > 10 µM
SK-MEL-5 melanoma
  TGI: > 10 µM
RPMI-8226 leukemia
  TGI: > 10 µM
NCI/ADR-RES ovarian
  TGI: > 10 µM
DU-145 prostate
  TGI: > 10 µM
ACHN renal
  TGI: > 10 µM
UACC-62 melanoma
  TGI: > 10 µM
UACC-257 melanoma
  TGI: > 10 µM
KM12 colon
  TGI: > 10 µM
MALME-3M melanoma
  TGI: > 10 µM
IGROV1 ovarian
  TGI: > 10 µM
SNB-19 CNS
  TGI: > 10 µM
NCI-H226 lung
  TGI: > 10 µM
OVCAR-3 ovarian
  TGI: > 10 µM
786-0 renal
  TGI: > 10 µM
HCT-15 colon
  TGI: > 10 µM
MOLT-4 leukemia
  TGI: > 10 µM
EKVX NSCLC
  TGI: > 10 µM
CAKI-1 renal
  TGI: > 10 µM
MCF7 breast
  TGI: > 10 µM
NCI-H23 lung
  TGI: > 10 µM
LOX IMVI melanoma
  TGI: > 10 µM
NCI-H460 lung
  TGI: > 10 µM
SF-268 CNS
  TGI: > 10 µM
HS 578T breast
  TGI: > 10 µM
TK-10 renal
  TGI: > 10 µM
OVCAR-4 ovarian
  TGI: > 10 µM
M14 melanoma
  TGI: > 10 µM
SN12C renal
  TGI: > 10 µM
RXF 393 renal
  TGI: > 10 µM
U251 CNS
  TGI: > 10 µM
A549 NSCLC
  TGI: > 10 µM
SF-539 CNS
  TGI: > 10 µM
MDA-MB-231 breast
  TGI: > 10 µM
A498 renal
  TGI: > 10 µM
